According to PubChem BioAssay AID330 (DTP/NCI, 2004):
Where “and” joins values, the source holds several entries; their conditions need not be identical. Equal values may be shown once. Toxic doses and inconclusive results are not listed. The calls were made as follows: active = survival T/C of 150% or more; inactive = T/C below 125% in these data.

System: P388 leukemia ip, CD2F1 mice, survival T/C
Test: NCI In Vivo Anticancer Drug Screen. Data for tumor model P388 Leukemia (intraperitoneal) in CD2F1 (CDF1) mice
Settings: endpoint: median survival time, higher = longer survival
Summary of the method: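 Mice carrying the transplanted tumor received test compound or vehicle. Survival was recorded in each group, and the value is the treated-group measurement divided by that of the vehicle-treated control group.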

[1] = dose: 50.0 mg/kg/injection, schedule: Q01DX009 (ip), vehicle: saline
[2] = dose: 100.0 mg/kg/injection, schedule: Q01DX009 (ip), vehicle: saline
[3] = dose: 200.0 mg/kg/injection, schedule: Q01DX009 (ip), vehicle: saline
[4] = dose: 100.0 mg/kg/injection, schedule: Q04DX002 (ip), vehicle: saline
[5] = dose: 200.0 mg/kg/injection, schedule: Q04DX002 (ip), vehicle: saline
[6] = dose: 400.0 mg/kg/injection, schedule: Q04DX002 (ip), vehicle: saline
[7] = dose: 50.0 mg/kg/injection, schedule: Q01DX005 (ip), vehicle: Klucel (hydroxypropylcellulose) (HPC)
[8] = dose: 100.0 mg/kg/injection, schedule: Q01DX005 (ip), vehicle: Klucel (hydroxypropylcellulose) (HPC)
[9] = dose: 200.0 mg/kg/injection, schedule: Q01DX005 (ip), vehicle: Klucel (hydroxypropylcellulose) (HPC)
[10] = dose: 50.0 mg/kg/injection, schedule: Q01DX009 (ip), vehicle: saline with Tween-80
[11] = dose: 100.0 mg/kg/injection, schedule: Q01DX009 (ip), vehicle: saline with Tween-80
[12] = dose: 200.0 mg/kg/injection, schedule: Q01DX009 (ip), vehicle: saline with Tween-80
[13] = dose: 6.25 mg/kg/injection, schedule: Q01DX009 (ip), vehicle: saline with Tween-80
[14] = dose: 12.5 mg/kg/injection, schedule: Q01DX009 (ip), vehicle: saline with Tween-80
[15] = dose: 25.0 mg/kg/injection, schedule: Q01DX009 (ip), vehicle: saline with Tween-80
[16] = dose: 60.0 mg/kg/injection, schedule: Q01DX005 (ip), vehicle: saline with Tween-80
[17] = dose: 120.0 mg/kg/injection, schedule: Q01DX005 (ip), vehicle: saline with Tween-80
[18] = dose: 240.0 mg/kg/injection, schedule: Q01DX005 (ip), vehicle: saline with Tween-80
[19] = dose: 50.0 mg/kg/injection, schedule: Q01DX005 (ip), vehicle: saline with Tween-80
[20] = dose: 100.0 mg/kg/injection, schedule: Q01DX005 (ip), vehicle: saline with Tween-80
[21] = dose: 200.0 mg/kg/injection, schedule: Q01DX005 (ip), vehicle: saline with Tween-80

Measured: T/C

CC1=C/C(=C(\c2cc(C)c(O)c(C(=O)O)c2)c2c(Cl)ccc(S(=O)(=O)O)c2Cl)C=C(C(=O)O)C1=O
inactive: dose: 25.0 mg/kg/injection, schedule: Q01DX009 (ip), vehicle: saline 102 % of control | [1] 102 % of control and 91 % of control | [2] 108 % of control and 95 % of control | [3] 98 % of control and 106 % of control

Cc1ccc(C2(C)C(=O)c3ccccc3C2=O)cc1
inactive: [4] 101 % of control | [5] 100 % of control | [6] 107 % of control

COc1nc(N)nc2c1ncn2C1CC(O)C(CO)O1 (centres undefined)
inactive: [7] 100 % of control | [8] 100 % of control | [9] 112 % of control

Cc1ccc(NC(=O)Oc2cc(C)c(I)cc2C)cc1Cl
inactive: [10] 112 % of control | [11] 112 % of control | [12] 95 % of control

CN(c1ccccc1)c1cc(=O)nc2ccccn12
inactive: dose: 60.0 mg/kg/injection, schedule: Q01DX005 (ip), vehicle: saline 105 % of control | dose: 120.0 mg/kg/injection, schedule: Q01DX005 (ip), vehicle: saline 98 % of control | dose: 240.0 mg/kg/injection, schedule: Q01DX005 (ip), vehicle: saline 105 % of control

CC(C)(C)NC(=O)c1ccc2c(n1)C(=O)N(C(C)(C)C)C2=S
inactive: dose: 100.0 mg/kg/injection, schedule: Q01DX001 (ip), vehicle: saline with Tween-80 91 % of control | dose: 200.0 mg/kg/injection, schedule: Q01DX001 (ip), vehicle: saline with Tween-80 94 % of control | dose: 400.0 mg/kg/injection, schedule: Q01DX001 (ip), vehicle: saline with Tween-80 100 % of control

CC(C)(C)CC(C)(C)c1ccc(O)c(O)c1
inactive: dose: 25.0 mg/kg/injection, schedule: Q01DX005 (ip), vehicle: saline 100 % of control | dose: 50.0 mg/kg/injection, schedule: Q01DX005 (ip), vehicle: saline 101 % of control | dose: 100.0 mg/kg/injection, schedule: Q01DX005 (ip), vehicle: saline 106 % of control | [2] 106 % of control and 94 % of control | dose: 200.0 mg/kg/injection, schedule: Q01DX005 (ip), vehicle: saline 110 % of control | dose: 400.0 mg/kg/injection, schedule: Q01DX009 (ip), vehicle: saline 94 % of control

[O-][n+]1nccnc1N1CCCCC1
inactive: [4] 90 % of control | [5] 98 % of control | [6] 100 % of control

O=c1c2ccccc2[nH]c2c([N+](=O)[O-])ccc(Oc3ccc(CCc4ccc(Oc5ccc([N+](=O)[O-])c6[nH]c7ccccc7c(=O)c56)cc4)cc3)c12
inactive: [13] 101 % of control | [14] 100 % of control | [15] 100 % of control | [12] 91 % of control

COC(=O)C1=COC(C)[C@H]2CN3CCc4c([nH]c5cc(OC)ccc45)C3CC12 (some centres undefined)
inactive: dose: 15.0 mg/kg/injection, schedule: Q01DX005 (ip), vehicle: saline with Tween-80 92 % of control | dose: 30.0 mg/kg/injection, schedule: Q01DX005 (ip), vehicle: saline with Tween-80 91 % of control | [16] 88 % of control

CC1(C)OC2OC(COC(=O)c3ccccc3)C(=O)C2O1 (centres undefined)
inactive: dose: 3.13 mg/kg/injection, schedule: Q01DX009 (ip), vehicle: saline with Tween-80 95 % of control | [13] 93 % of control | [14] 89 % of control

O=C(SCc1oc2ccccc2c1O)c1ccccc1
inactive: [14] 103 % of control | [15] 104 % of control | [10] 112 % of control | [11] 94 % of control

CNC(=O)OCc1c(COC(=O)NC)c(-c2ccccc2)n(C)c1C
inactive: dose: 50.0 mg/kg/injection, schedule: Q01DX009 (ip), vehicle: distilled water + Tween-80 90 % of control

CCCCNC(C)(C)C(SS)c1ccc(C(F)(F)F)cc1 (centres undefined)
inactive: dose: 50.0 mg/kg/injection, schedule: Q04DX003 (ip), vehicle: other 100 % of control | dose: 100.0 mg/kg/injection, schedule: Q04DX003 (ip), vehicle: other 104 % of control

O=C(CC(=O)C(F)(F)F)c1cccs1.O=C(CC(=O)C(F)(F)F)c1cccs1.O=C(CC(=O)C(F)(F)F)c1cccs1.[Gd]
inactive: [1] 96 % of control | [2] 96 % of control | [3] 99 % of control

CCN(CC)c1cccc(OC(=O)Nc2cccc(C(F)(F)F)c2)c1
inactive: [16] 106 % of control | [17] 94 % of control | [18] 97 % of control

CCOc1ccc(N=Nc2c(-c3ccccc3)nn(C(=S)S)c2-c2ccccc2)cc1
inactive: [19] 88 % of control | [20] 92 % of control | [21] 90 % of control

CC1C(=O)OC(C(O)C(C)(O)C2C(O)CC3C4CC5OC56C(O)C=CC(=O)C6(C)C4CCC32C)C1C (centres undefined)
inactive: dose: 1.25 mg/kg/injection, schedule: Q01DX009 (ip), vehicle: Klucel (hydroxypropylcellulose) (HPC) 108 % of control | dose: 2.5 mg/kg/injection, schedule: Q01DX009 (ip), vehicle: Klucel (hydroxypropylcellulose) (HPC) 103 % of control | dose: 5.0 mg/kg/injection, schedule: Q01DX009 (ip), vehicle: Klucel (hydroxypropylcellulose) (HPC) 105 % of control | dose: 10.0 mg/kg/injection, schedule: Q01DX009 (ip), vehicle: Klucel (hydroxypropylcellulose) (HPC) 108 % of control

COc1ccc(/C=C2/Oc3c(Br)c(OC)cc(OC)c3C2=O)cc1
inactive: dose: 25.0 mg/kg/injection, schedule: Q01DX005 (ip), vehicle: Klucel (hydroxypropylcellulose) (HPC) 98 % of control | [7] 98 % of control | [8] 96 % of control | [9] 97 % of control

COc1ccccc1N1CCN(c2nc(NC(=O)c3ccccc3)nn2C)CC1
inactive: dose: 60.0 mg/kg/injection, schedule: Q01DX005 (ip), vehicle: Klucel (hydroxypropylcellulose) (HPC) 112 % of control | dose: 120.0 mg/kg/injection, schedule: Q01DX005 (ip), vehicle: Klucel (hydroxypropylcellulose) (HPC) 87 % of control

C=CCOC(=O)CCCC1=NC2=CC=CC3=NC(C)=NC(=N1)N23
inactive: dose: 50.0 mg/kg/injection, schedule: Q04DX003 (ip), vehicle: saline with Tween-80 105 % of control | dose: 100.0 mg/kg/injection, schedule: Q04DX003 (ip), vehicle: saline with Tween-80 99 % of control | dose: 200.0 mg/kg/injection, schedule: Q04DX003 (ip), vehicle: saline with Tween-80 91 % of control

O=C(NO)/C(CC(=O)c1ccc(O)cc1)=N\O
inactive: [16] 104 % of control | [17] 101 % of control | [18] 105 % of control

C/C(=C1/c2ccccc2-c2n[nH]c(C)c21)S(=O)(=O)O
inactive: [11] 109 % of control | [12] 109 % of control | dose: 400.0 mg/kg/injection, schedule: Q01DX009 (ip), vehicle: saline with Tween-80 100 % of control

CCCCCCCCCCCCCCCC(=O)N(C/C=C/CN(CCCN(C)C)C(=O)CCCCCCCCCCCCCCC)CCCN(C)C
inactive: [13] 100 % of control | [14] 90 % of control | [15] 90 % of control

O=C(Nc1nc2ccc(Cl)cc2[nH]1)c1ccccc1O
inactive: [19] 94 % of control | [20] 98 % of control | [21] 101 % of control
